Source: BindingDB's records for PubMed 6123593 (Eli Lilly, 1982)
One block for each compound: values may come before it.

How the values were obtained:
[1] = molecular target: T1, Alpha-2C adrenergic receptor (Rattus norvegicus, UniProt P22086)
T1 sequence (P22086 whole entry): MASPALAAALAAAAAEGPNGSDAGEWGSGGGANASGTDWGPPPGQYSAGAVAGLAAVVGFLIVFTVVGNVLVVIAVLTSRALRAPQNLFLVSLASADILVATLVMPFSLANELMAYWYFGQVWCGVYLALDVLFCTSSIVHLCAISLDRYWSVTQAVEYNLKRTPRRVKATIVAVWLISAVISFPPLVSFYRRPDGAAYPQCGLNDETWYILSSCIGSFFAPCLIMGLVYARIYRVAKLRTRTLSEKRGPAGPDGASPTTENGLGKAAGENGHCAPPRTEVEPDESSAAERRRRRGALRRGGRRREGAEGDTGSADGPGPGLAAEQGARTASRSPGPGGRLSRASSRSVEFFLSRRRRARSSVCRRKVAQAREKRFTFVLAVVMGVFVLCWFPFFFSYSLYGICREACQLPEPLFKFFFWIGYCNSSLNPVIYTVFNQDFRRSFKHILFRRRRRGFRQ

[2] = molecular target: Histamine H1 receptor (Rattus norvegicus, UniProt P31390)
Histamine H1 receptor, sequence (P31390 whole entry): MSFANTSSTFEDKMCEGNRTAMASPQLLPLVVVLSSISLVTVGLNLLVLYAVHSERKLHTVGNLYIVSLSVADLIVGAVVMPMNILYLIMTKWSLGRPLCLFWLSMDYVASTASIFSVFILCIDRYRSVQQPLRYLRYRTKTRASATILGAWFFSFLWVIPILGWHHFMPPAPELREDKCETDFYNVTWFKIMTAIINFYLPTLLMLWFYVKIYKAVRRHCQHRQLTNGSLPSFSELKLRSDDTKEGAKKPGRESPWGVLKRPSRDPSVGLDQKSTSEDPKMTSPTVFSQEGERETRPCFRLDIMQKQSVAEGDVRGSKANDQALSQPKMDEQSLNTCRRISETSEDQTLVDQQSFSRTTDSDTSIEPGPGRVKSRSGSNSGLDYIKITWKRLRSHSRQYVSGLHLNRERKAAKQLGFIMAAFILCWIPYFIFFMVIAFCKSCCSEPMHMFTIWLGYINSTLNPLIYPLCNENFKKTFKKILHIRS

[3] = molecular target: T2, Muscarinic acetylcholine receptor M2 (Rattus norvegicus, UniProt P10980)
T2 sequence (P10980 whole entry): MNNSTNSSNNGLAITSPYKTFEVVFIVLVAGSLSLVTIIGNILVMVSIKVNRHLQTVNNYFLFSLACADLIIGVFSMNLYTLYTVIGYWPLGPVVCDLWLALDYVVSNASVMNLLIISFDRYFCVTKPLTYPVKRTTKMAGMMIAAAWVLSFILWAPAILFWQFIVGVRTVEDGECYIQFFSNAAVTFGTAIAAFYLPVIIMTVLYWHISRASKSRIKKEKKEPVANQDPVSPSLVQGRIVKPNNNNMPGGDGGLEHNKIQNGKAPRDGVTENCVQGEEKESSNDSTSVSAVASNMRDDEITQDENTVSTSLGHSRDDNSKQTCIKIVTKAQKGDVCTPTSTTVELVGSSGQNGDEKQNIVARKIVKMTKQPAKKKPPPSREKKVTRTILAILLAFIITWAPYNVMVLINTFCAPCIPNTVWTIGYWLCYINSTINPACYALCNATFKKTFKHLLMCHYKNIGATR

SMILES: CN(C)C[C@@H]1C2CCC(CC2)[C@@H]1c1ccc(Cl)c(Cl)c1 [CAS_62373-97-1]
Ki [1]: > 10 µM
Ki [2]: 2 µM

SMILES: CNCCC(Oc1ccccc1C)c1ccccc1 (configuration not stated) [Methyl-(3-phenyl-3-o-tolyloxy-propyl)-amine(tomoxetine)]
Ki [1]: > 10 µM
Ki [3]: > 10 µM
Ki [2]: 6.4 µM

SMILES: CNCCCN1c2ccccc2CCc2ccccc21 [Desmethylimipramine]
Ki [1]: 9.2 µM
Ki [3]: 0.6 µM

The next compounds have a lower Ki [1] than those just listed; values first:

Ki [1]: 6.1 µM
Ki [2]: > 10 µM
SMILES: CN1Cc2c(N)cccc2[C@H](c2ccccc2)C1 [(+/-)-2-Methyl-4-phenyl-1,2,3,4-tetrahydro-isoquinolin-8-ylamine]

Ki [1]: 4.6 µM
Ki [3]: 0.32 µM
Ki [2]: 0.031 µM
SMILES: CN(C)CCCN1c2ccccc2CCc2ccccc21
